# How the values were obtained:
# DCAF15 = DCAF15 (Homo sapiens, UniProt Q66K64); test: HTRF competition assay, binary interaction between compounds and DCAF15; format: binding; settings: competition with Alexa Fluor 647 tracer, His-tagged DCAF15 complex
# Procedure: Example 7: Measurement of Binary Interaction Between Compounds And DCAF15 Using Homogeneous Time Resolved Fluorescence (HTRF)
# DCAF15 interactions with test compounds were monitored using HTRF competition assays (Cisbio, Bedford, MA). Test compounds were first collected in a 384-well microplate (cat. #781280, Grenier Bio-One, Monroe, NC) as 10 mM stocks in 100% dimethyl sulfoxide (DMSO). A second stock plate (cat. #781280, Grenier Bio-One, Monroe, NC) was prepared through 3-fold serial dilution in DMSO of the afore-mentioned stocks using a Mosquito HTS dispenser (mosquito@ HTS, SPT Labtech, Boston, MA). 0.2 ul of these diluted stocks were then dispensed into a 384-well Optiplate (cat. #6007290, Perkin Elmer, Waltham, MA) in duplicate wells, to assemble the assay plate. The tracer molecule containing an Alexa Fluor 647 probe was prepared in 25 mM HEPES pH 7.5, 100 mM NaCl, 0.1 mg/ml BSA, 0.005% Tween 20, 0.5 mM TCEP (dilution buffer) to 612 nM (2.04×). Separately, His-tagged DCAF15 complex was prepared at 32 nM (4×) in the dilution buffer, and mAb Anti-6His-Eu cryptate Gold (cat. #61H12KLA, Cisbio, Bedford, MA) at 4× dilution in the detection buffer (cat. #61 DB9RDF, Cisbio, Bedford, MA). These two solutions were mixed and incubated for 15 min at room temperature. 9.8 ul of the tracer solution and 10 ul of the DCAF15/mAb Anti-6His-Eu cryptate Gold mixture were added sequentially to each well in the assay plate. Reaction mixtures with no DCAF15 added were included as positive controls. The final mixture was incubated for an hour at room temperature and spun down briefly before data collection at 615 nm and 666 nm using En Vision 2104 Multilabel Plate Reader (Perkin Elmer, Bedford, MA). Binding was estimated based on ratiometric analysis and titration curves were generated in GraphPad Prism (7.00, GraphPad, La Jolla, CA).
# DCAF15/RBM39 = DCAF15/RBM39 (Homo sapiens, UniProt Q14498+Q66K64); test: AlphaLISA compound-induced DCAF15-RBM39 ternary complex formation; format: binding; settings: His-tagged DCAF15 complex and biotin-carrying RBM39
# Procedure: Example 6: Quantitative Evaluation of Compound-Induced Ternary Complex Formation Using Amplified Luminescent Proximity Homogeneous Assay
# Compound-induced DCAF15-RBM39 ternary complex formation was monitored using AlphaLISA® assays (Perkin Elmer, Waltham, MA). Test compounds were first collected in a 384-well microplate (cat. #781280, Grenier Bio-One, Monroe, NC) as 2 mM stocks in 100% dimethyl sulfoxide (DMSO). These stocks were then serially diluted in DMSO by 3-fold into a new plate (cat. #781280, Grenier Bio-One, Monroe, NC) using a Mosquito HTS dispenser (mosquito@ HTS, SPT Labtech, Boston, MA). 0.2 ul of these diluted stocks were then dispensed into a 384-well Optiplate (cat. #6007290, Perkin Elmer, Waltham, MA) in duplicate wells, to assemble the final assay plate consisting of duplicated dose ranges. Separately, a protein mixture consisting of His-tagged DCAF15 complex and biotin-carrying RBM39, each at 408 nM (2.04×), was prepared in 50 mM HEPES, pH 7.5, 100 mM NaCl, 2 mM MgCl2, 0.1% BSA, 2 mM TCEP, 0.05% Tween-20 (dilution buffer). 9.8 ul of this protein mixture was then mixed with the compounds in the assay plate and incubated for one hour at room temperature. Reaction mixtures with no compounds added were included as negative controls, while a His-tagged and biotinylated GST protein was included to track general assay performance. Nickel Chelate AlphaLISA Acceptor beads (cat. #AL108M, Perkin Elmer, MA) and AlphaScreen Streptavidin Donor beads (cat. #6760002, Perkin Elmer, Waltham, MA) were prepared separately in the dilution buffer as 4× stocks (80 ug/ml). The beads were then added to the assay plate sequentially with incubation at room temperature for 1-2 hours after each addition. Signals were recorded using EnVision 2104 Multilabel Plate Reader (Perkin Elmer, Waltham, MA) and titration curves were generated in GraphPad Prism (7.00, GraphPad, La Jolla, CA).
SMILES,IC50 (DCAF15),EC50 (DCAF15/RBM39)
CS(=O)(=O)c1ccc(CCOc2ccc(S(=O)(=O)Nc3ccc(Cl)c4c(Cl)c[nH]c34)cc2)cc1 [Compound 77],> 100 µM,1 to 10 µM
O=C(NCCc1ccccn1)c1cccc(S(=O)(=O)Nc2ccc(Cl)c3c(Cl)c[nH]c23)c1F [Compound 200],< 1 µM,< 1 µM
Cn1cc(CCOc2cccc(S(=O)(=O)Nc3ccc(Cl)c4c(Cl)c[nH]c34)c2)c2ccccc21 [Compound 92],> 100 µM,10 to 100 µM
O=C(NC[C@H]1Cc2ccccc21)c1ccc(S(=O)(=O)Nc2ccc(Cl)c3c(Cl)c[nH]c23)c(F)c1 [Compound 165],> 100 µM,> 100 µM
CC(C)(C)OC(=O)N1CCC2(CC1)CN(C(=O)c1ccc(S(=O)(=O)Nc3ccc(Cl)c4c(Cl)c[nH]c34)c(F)c1)CCO2 [Compound 225],1 to 10 µM,1 to 10 µM
N[C@@H]1CCC[C@@H](Oc2ccc(S(=O)(=O)Nc3ccc(Cl)c4c(Cl)c[nH]c34)cc2)C1 [Compound 7],1 to 10 µM,< 1 µM
Cc1nc(-c2ccc(COc3ccc(S(=O)(=O)Nc4ccc(Cl)c5c(Cl)c[nH]c45)cc3)cc2)no1 [Compound 64],> 100 µM,> 100 µM
O=C(c1cccc(S(=O)(=O)Nc2ccc(Cl)c3c(Cl)c[nH]c23)c1F)N1CCC(Oc2cccnc2)CC1 [Compound 219],< 1 µM,< 1 µM
"CC1(Oc2ccc(S(=O)(=O)Nc3ccc(Cl)c4c(Cl)c[nH]c34)cc2)CCNCC1 [Compound 22, N-(3,4-dichloro-1H-indol-7-yl)-4-((4-methylpiperidin-4-yl)oxy)benzenesulfonamide]",1 to 10 µM,< 1 µM
NC[C@H]1CC[C@H](Oc2ccc(S(=O)(=O)Nc3ccc(Cl)c4c(Cl)c[nH]c34)cc2)CC1 [Compound 15],1 to 10 µM,1 to 10 µM
O=C1CC[C@H](NC(=O)c2ccc(S(=O)(=O)Nc3ccc(Cl)c4c(Cl)c[nH]c34)c(F)c2)CN1 [Compound 157],< 1 µM,< 1 µM
O=C(NCCc1ccccn1)c1ccc(S(=O)(=O)Nc2ccc(Cl)c3c(Cl)c[nH]c23)c(F)c1 [Compound 201],1 to 10 µM,< 1 µM
O=C(NCCCC(=O)N1CCCC1)c1cccc(S(=O)(=O)Nc2ccc(Cl)c3c(Cl)c[nH]c23)c1F [Compound 206],< 1 µM,< 1 µM
Cc1ccnc(CNC(=O)c2cccc(S(=O)(=O)Nc3ccc(Cl)c4c(Cl)c[nH]c34)c2F)c1 [Compound 178],1 to 10 µM,1 to 10 µM
O=S(=O)(Nc1ccc(Cl)c2c(Cl)c[nH]c12)c1cccc(O[C@@H]2C[C@@H]3C[C@@H]3C2)c1 [Compound 20],> 100 µM,1 to 10 µM
CC1(CCOc2ccc(S(=O)(=O)Nc3ccc(Cl)c4c(Cl)c[nH]c34)cc2)CCNCC1 [Compound 75],1 to 10 µM,< 1 µM
Cc1cnc(CNC(=O)c2ccc(S(=O)(=O)Nc3ccc(Cl)c4c(Cl)c[nH]c34)c(F)c2)cn1 [Compound 184],< 1 µM,> 100 µM
O=C(N[C@H]1CCCCNC1=O)c1ccc(S(=O)(=O)Nc2ccc(Cl)c3c(Cl)c[nH]c23)c(F)c1 [Compound 161],< 1 µM,< 1 µM

SMILES,IC50 (DCAF15),EC50 (DCAF15/RBM39)
O=C1CC[C@H](NC(=O)c2cccc(S(=O)(=O)Nc3ccc(Cl)c4c(Cl)c[nH]c34)c2F)CN1 [Compound 156],1 to 10 µM,< 1 µM
N[C@@H]1CCC[C@@H](Oc2cccc(S(=O)(=O)Nc3ccc(Cl)c4c(Cl)c[nH]c34)c2)C1 [Compound 6],10 to 100 µM,< 1 µM
CC(C)(C)OC(=O)NC1(CNC(=O)c2cccc(S(=O)(=O)Nc3ccc(Cl)c4c(Cl)c[nH]c34)c2F)CC1 [Compound 162],1 to 10 µM,1 to 10 µM
O=S(=O)(Nc1ccc(Cl)c2c(Cl)c[nH]c12)c1ccc(O[C@H]2CC[C@H](OCc3ccccc3)CC2)cc1 [Compound 19],> 100 µM,> 100 µM
CC(C)(C)OC(=O)NC1(CNC(=O)c2ccc(S(=O)(=O)Nc3ccc(Cl)c4c(Cl)c[nH]c34)c(F)c2)CC1 [Compound 163],1 to 10 µM,1 to 10 µM
CN(C)C(=O)c1ccc(CCNC(=O)c2cccc(S(=O)(=O)Nc3ccc(Cl)c4c(Cl)c[nH]c34)c2F)cc1 [Compound 194],1 to 10 µM,1 to 10 µM
O=C(NCCCOCc1ccccc1)c1cccc(S(=O)(=O)Nc2ccc(Cl)c3c(Cl)c[nH]c23)c1F [Compound 204],1 to 10 µM,1 to 10 µM
"CC1(Oc2ccc(S(=O)(=O)Nc3ccc(Cl)c4c(Cl)c[nH]c34)cc2)CCN(CCO)CC1 [Compound 23, N-(3,4-dichloro-1H-indol-7-yl)-4-((1-(2-hydroxyethyl)-4-methylpiperidin-4-yl)oxy)benzenesulfonamide]",1 to 10 µM,< 1 µM
Cn1nnc2cc(COc3ccc(S(=O)(=O)Nc4ccc(Cl)c5c(Cl)c[nH]c45)cc3)ccc21 [Compound 68],> 100 µM,< 1 µM
O=C(NCCOC1CCS(=O)(=O)CC1)c1cccc(S(=O)(=O)Nc2ccc(Cl)c3c(Cl)c[nH]c23)c1F [Compound 188],1 to 10 µM,< 1 µM
CCOCCOc1ccc(S(=O)(=O)Nc2ccc(Cl)c3c(Cl)c[nH]c23)cc1C(C)C [Compound 232],> 100 µM,1 to 10 µM
COCCOCCCNC(=O)c1cccc(S(=O)(=O)Nc2ccc(Cl)c3c(Cl)c[nH]c23)c1F [Compound 202],1 to 10 µM,< 1 µM
O=S(=O)(Nc1ccc(Cl)c2c(Cl)c[nH]c12)c1ccc(OCc2cccc(OC(F)F)c2)cc1 [Compound 54],> 100 µM,1 to 10 µM
O=C(N[C@H]1CCCCNC1=O)c1cccc(S(=O)(=O)Nc2ccc(Cl)c3c(Cl)c[nH]c23)c1F [Compound 160],< 1 µM,< 1 µM
O=S(=O)(Nc1ccc(Cl)c2c(Cl)c[nH]c12)c1ccc(O[C@H]2CC[C@H](N3CCOCC3)CC2)cc1 [Compound 17],10 to 100 µM,< 1 µM
CCS(=O)(=O)CCNC(=O)c1ccc(S(=O)(=O)Nc2ccc(Cl)c3c(Cl)c[nH]c23)c(F)c1 [Compound 191],< 1 µM,< 1 µM
O=C(NCCCOCc1ccccc1)c1ccc(S(=O)(=O)Nc2ccc(Cl)c3c(Cl)c[nH]c23)c(F)c1 [Compound 205],> 100 µM,< 1 µM

# Reference: patent US20240327351A1, “AMIDE AND ETHER SUBSTITUTED N-(1H-INDOL-7-YL)BENZENESULFONAMIDES AND USES THEREOF” (TRIANA BIOMEDICINES, INC., priority 2021, published 2024)
